Experimental data published in patent US8841321B2, “Quinoline derivatives as antibacterial agents” (Janssen Pharmaceutica NV, priority 2005, dated 2014).
Values after ≈ are worked out from the molar mass of the structure shown.

Tests used:
[1] = tested on: SPY 8668 (Streptococcus pyogens (ATCC8668)); test: Microtitre plate assay, IC90 determination; assay type: cell-based; conditions: for IC90 (μg/ml) SPY 8668: Streptococcus pyogens (ATCC8668)
[2] = tested on: LMO 49594 (Listeria monocytogenes (ATCC49594)); test: Microtitre plate assay, IC90 determination; assay type: cell-based; conditions: for IC90 (μg/ml) LMO 49594: Listeria monocytogenes (ATCC49594); for IC90: Listeria monocytogenes, ATCC49594, Listeria monocytogenes (ATCC49594), read-out: IC90 (μg/ml) LMO 49594
[3] = tested on: BSU 43639 (Bacillus subtilis (ATCC43639)); test: Microtitre plate assay, IC90 determination; assay type: cell-based; conditions: for IC90 (μg/ml) BSU 43639: Bacillus subtilis (ATCC43639); for IC90: Bacillus subtilis, ATCC43639, Bacillus subtilis (ATCC43639), read-out: IC90 (μg/ml) BSU 43639
[4] = tested on: STA 25923 (Staphylococcus aureus (ATCC25923)); test: Microtitre plate assay, IC90 determination; assay type: cell-based; conditions: for IC90 (μg/ml) STA 25923: Staphylococcus aureus (ATCC25923); for IC90: Staphylococcus aureus, ATCC25923, Staphylococcus aureus (ATCC25923), read-out: IC90 (μg/ml) STA 25923
[5] = tested on: PAE 27853 (Pseudomonas aeruginosa (ATCC27853)); test: Microtitre plate assay, IC90 determination; assay type: cell-based; conditions: for IC90 (μg/ml) PAE 27853: Pseudomonas aeruginosa (ATCC27853); for IC90: Pseudomonas aeruginosa, ATCC27853, Pseudomonas aeruginosa (ATCC27853), read-out: IC90 (μg/ml) PAE 27853
[6] = tested on: STA RMETH (methicilline resistant Staphylococcus aureus (MRSA), a clinical isolate from the University of Antwerp); test: Microtitre plate assay, IC90 determination; assay type: cell-based; conditions: for IC90: Staphylococcus aureus, MRSA, read-out: IC90 (μg/ml) STA RMETH
[7] = tested on: STA 29213 (Staphylococcus aureus (ATCC29213)); test: Microtitre plate assay, IC90 determination; assay type: cell-based; conditions: for IC90 (μg/ml) STA 29213: Staphylococcus aureus (ATCC29213); for IC90: Staphylococcus aureus, ATCC29213, Staphylococcus aureus (ATCC29213), read-out: IC90 (μg/ml) STA 29213
Method in brief: (§1)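 Growth-inhibition endpoint: resazurin added 3 h after inoculation, plates incubated overnight, fluorescence at 530/590 nm after 24 h at 37 °C. Inocula of roughly 10–60 CFU per well in Mueller-Hinton medium; compounds titrated five-fold. IC90 reported as μg/ml.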

[8] = tested on: SPN 6305 (Streptococcus pneumoniae (ATCC6305)); test: Microtitre plate assay, IC90 determination; assay type: cell-based; conditions: for IC90 (μg/ml) SPN 6305: Streptococcus pneumoniae (ATCC6305)
Method in brief: as §1

[9] = tested on: EFA 29212 (Enterococcus faecalis (ATCC29212)); test: Microtitre plate assay, IC90 determination; assay type: cell-based; conditions: for IC90 (μg/ml) EFA 29212: Enterococcus faecalis (ATCC29212); for IC90: Enterococcus faecalis, ATCC29212, Enterococcus faecalis (ATCC29212), read-out: IC90 (μg/ml) EFA 29212

Row | Compound | IC90 (μg/ml) SPY 8668 [1] | IC90 (μg/ml) LMO 49594 [2] | IC90 (μg/ml) BSU 43639 [3] | IC90 (μg/ml) STA 25923 [4] | IC90 (μg/ml) PAE 27853 [5] | IC90 (μg/ml) STA RMETH [6] | IC90 (μg/ml) STA 29213 [7] | IC90 (μg/ml) SPN 6305 [8] | IC90 (μg/ml) EFA 29212 [9] | melting point | IC90 ([1]; Streptococcus, ATCC8668, Streptococcus pyogens (ATCC8668), read-out: IC90 (μg/ml) SPY 8668) | IC90 [2] | IC90 [3] | IC90 [4] | IC90 [5] | IC90 [6] | IC90 [7] | IC90 ([8]; Streptococcus pneumoniae, ATCC6305, Streptococcus pneumoniae (ATCC6305), read-out: IC90 (μg/ml) SPN 6305) | IC90 [9]
1 | COc1nc2ccc(Br)cc2cc1C(c1ccccc1)C(O)(CCCN1CCCC1)c1ccc2ccccc2c1 (racemic) [Compound 49] | 47.3 µg/mL (≈ 79.4 µM) | 47.3 µg/mL (≈ 79.4 µM) | 59.6 µg/mL (≈ 100 µM) | 59.6 µg/mL (≈ 100 µM) | 53.1 µg/mL (≈ 89.2 µM) | 59.6 µg/mL (≈ 100 µM) | 47.3 µg/mL (≈ 79.4 µM) | 11.9 µg/mL (≈ 20 µM) | 47.3 µg/mL (≈ 79.4 µM) |  |  |  |  |  |  |  |  |  | 
2 | COc1nc2ccc(Br)cc2cc1C(c1ccccc1)C(O)(CCCCN(C)C)c1ccc2c(c1)OCO2 (centres unmarked) [Compound 9] |  |  |  |  |  |  | 9.1 µg/mL (≈ 15.8 µM) | 11.5 µg/mL (≈ 19.9 µM) |  | 98 °C |  |  |  |  |  |  |  |  | 
3 | COc1nc2ccc(Br)cc2cc1C(c1ccccc1)C(O)(CCCCN(C)C)c1cc(F)ccc1F (centres unmarked) [Compound 13] |  |  |  |  |  |  |  | 25.4 µg/mL (≈ 44.6 µM) |  | 166 °C |  |  |  |  |  |  |  |  | 
4 | COc1nc2ccc(Br)cc2cc1C(c1ccccc1)C(O)(CCCCN(C)C)c1cccnc1 (centres unmarked) [Compound 15] |  |  |  |  |  |  | 53.5 µg/mL (≈ 100 µM) | 53.5 µg/mL (≈ 100 µM) |  | 150 °C |  |  |  |  |  |  |  |  | 
5 | COc1nc2ccc(Br)cc2cc1C(c1ccccc1)C(O)(CCCCN(C)C)c1cccc2ccccc12 (centres unmarked) [Compound 19] |  |  |  |  |  |  |  |  |  |  | 14.7 µg/mL (≈ 25.2 µM) | 11.6 µg/mL (≈ 19.9 µM) | 14.7 µg/mL (≈ 25.2 µM) | 14.7 µg/mL (≈ 25.2 µM) | 14.7 µg/mL (≈ 25.2 µM) | 14.7 µg/mL (≈ 25.2 µM) | 14.7 µg/mL (≈ 25.2 µM) | 14.7 µg/mL (≈ 25.2 µM) | 14.7 µg/mL (≈ 25.2 µM)
6 | COc1nc2ccc(Br)cc2cc1C(c1ccccc1)C(O)(CCCCN(C)C)c1ccccc1 (centres unmarked) [Compound 20] | 4.2 µg/mL (≈ 7.87 µM) |  |  |  |  |  |  | 2.1 µg/mL (≈ 3.94 µM) |  |  |  | 13.4 µg/mL (≈ 25.1 µM) | 10.6 µg/mL (≈ 19.9 µM) | 10.6 µg/mL (≈ 19.9 µM) | 10.6 µg/mL (≈ 19.9 µM) | 10.6 µg/mL (≈ 19.9 µM) | 10.6 µg/mL (≈ 19.9 µM) |  | 10.6 µg/mL (≈ 19.9 µM)
7 | COc1nc2ccc(Br)cc2cc1C(c1ccccc1)C(O)(CCCCN(C)C)c1ccccc1 (centres unmarked) [Compound 21] | 10.6 µg/mL (≈ 19.9 µM) | 10.6 µg/mL (≈ 19.9 µM) | 10.6 µg/mL (≈ 19.9 µM) | 10.6 µg/mL (≈ 19.9 µM) | 10.6 µg/mL (≈ 19.9 µM) | 10.6 µg/mL (≈ 19.9 µM) | 10.6 µg/mL (≈ 19.9 µM) | 11.9 µg/mL (≈ 22.3 µM) | 21.2 µg/mL (≈ 39.7 µM) |  |  |  |  |  |  |  |  |  | 
8 | COc1nc2ccc(Br)cc2cc1C(c1ccccc1)C(O)(CCCCN(C)C)c1ccc2ccccc2c1 (centres unmarked) [Compound 23] | 46.4 µg/mL (≈ 79.5 µM) | 36.8 µg/mL (≈ 63.1 µM) | 58.4 µg/mL (≈ 100 µM) | 58.4 µg/mL (≈ 100 µM) | 1.9 µg/mL (≈ 3.26 µM) | 58.4 µg/mL (≈ 100 µM) | 1.9 µg/mL (≈ 3.26 µM) | 11.6 µg/mL (≈ 19.9 µM) | 4.1 µg/mL (≈ 7.03 µM) |  |  |  |  |  |  |  |  |  | 
9 | COc1nc2ccc(Br)cc2cc1C(c1ccccc1)C(O)(CCCCN(C)C)c1ccc2ccccc2c1 (centres unmarked) [Compound 24] | 1.9 µg/mL (≈ 3.26 µM) | 1.9 µg/mL (≈ 3.26 µM) | 1.9 µg/mL (≈ 3.26 µM) | 0.5 µg/mL (≈ 0.857 µM) | 1.9 µg/mL (≈ 3.26 µM) | 1.9 µg/mL (≈ 3.26 µM) | 1.9 µg/mL (≈ 3.26 µM) | 1.9 µg/mL (≈ 3.26 µM) | 1.9 µg/mL (≈ 3.26 µM) |  |  |  |  |  |  |  |  |  | 
10 | COc1nc2ccc(Br)cc2cc1C(c1ccccc1)C(O)(CCCCN(C)C)c1ccc2ccccc2c1 (centres unmarked) [Compound 25] | 9.3 µg/mL (≈ 15.9 µM) | 9.3 µg/mL (≈ 15.9 µM) | 58.4 µg/mL (≈ 100 µM) | 58.4 µg/mL (≈ 100 µM) | 1.9 µg/mL (≈ 3.26 µM) | 58.4 µg/mL (≈ 100 µM) | 1.9 µg/mL (≈ 3.26 µM) | 2.3 µg/mL (≈ 3.94 µM) | 4.1 µg/mL (≈ 7.03 µM) |  |  |  |  |  |  |  |  |  | 
11 | COc1ccc2cc(C(O)(CCCCN(C)C)C(c3ccccc3)c3cc4c(Br)cccc4nc3OC)ccc2c1 (centres unmarked) [Compound 27] | 48.7 µg/mL (≈ 79.4 µM) |  |  |  | 9.7 µg/mL (≈ 15.8 µM) | 61.4 µg/mL (≈ 100 µM) |  | 61.4 µg/mL (≈ 100 µM) | 61.4 µg/mL (≈ 100 µM) |  |  | 61.4 µg/mL (≈ 100 µM) | 48.7 µg/mL (≈ 79.4 µM) | 61.4 µg/mL (≈ 100 µM) |  |  | 1.9 µg/mL (≈ 3.1 µM) |  | 
